“And” between values parts separate entries of the source, which are not always exact repeats. Equal values may be shown once. One block for each compound: values may come before it.
Tested on: 233499-124-R-J3-PDC complex spheroid viability
Assay: Anticancer human tumor 233499-124-R-J3-PDC patient-derived colon adenocarcinoma cell line growth inhibition [CLK]
Details: for viability, T/C: stronger effect = lower value
How it was run: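 Multi-cell-type spheroids combined patient-derived tumor cells with HUVEC endothelial cells and human mesenchymal stem cells. Paired agents were dosed in half-log steps down from about clinical Cmax, or from 10 microM where Cmax was unknown.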

[1] = curve of first compound, second compound 0.0316 µM
[2] = curve of first compound, second compound 0.1 µM
[3] = curve of first compound, second compound 0.316 µM
[4] = curve of first compound, second compound 1 µM
[5] = curve of first compound, second compound 3.16 µM
[6] = curve of first compound, second compound 10 µM
[7] = second compound 0.0316 µM, first compound 0.0316 µM
[8] = second compound 0.0316 µM, first compound 0.1 µM
[9] = second compound 0.0316 µM, first compound 0.316 µM
[10] = second compound 0.0316 µM, first compound 1 µM
[11] = second compound 0.0316 µM, first compound 3.16 µM
[12] = second compound 0.0316 µM, first compound 10 µM
[13] = second compound 0.1 µM, first compound 0.0316 µM
[14] = second compound 0.1 µM, first compound 0.1 µM
[15] = second compound 0.1 µM, first compound 0.316 µM
[16] = second compound 0.1 µM, first compound 1 µM
[17] = second compound 0.1 µM, first compound 3.16 µM
[18] = second compound 0.1 µM, first compound 10 µM
[19] = second compound 0.316 µM, first compound 0.0316 µM
[20] = second compound 0.316 µM, first compound 0.1 µM
[21] = second compound 0.316 µM, first compound 0.316 µM
[22] = second compound 0.316 µM, first compound 1 µM
[23] = second compound 0.316 µM, first compound 3.16 µM
[24] = second compound 0.316 µM, first compound 10 µM
[25] = second compound 1 µM, first compound 0.0316 µM
[26] = second compound 1 µM, first compound 0.1 µM
[27] = second compound 1 µM, first compound 0.316 µM
[28] = second compound 1 µM, first compound 1 µM
[29] = second compound 1 µM, first compound 3.16 µM
[30] = second compound 1 µM, first compound 10 µM
[31] = second compound 3.16 µM, first compound 0.0316 µM
[32] = second compound 3.16 µM, first compound 0.1 µM
[33] = second compound 3.16 µM, first compound 0.316 µM
[34] = second compound 3.16 µM, first compound 1 µM
[35] = second compound 3.16 µM, first compound 3.16 µM
[36] = second compound 3.16 µM, first compound 10 µM
[37] = second compound 10 µM, first compound 0.0316 µM
[38] = second compound 10 µM, first compound 0.1 µM
[39] = second compound 10 µM, first compound 0.316 µM
[40] = second compound 10 µM, first compound 1 µM
[41] = second compound 10 µM, first compound 3.16 µM
[42] = second compound 10 µM, first compound 10 µM
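Also: spheroids exposed to the drug combinations for seven days.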
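For viability, T/C in this document: percent viability relative to DMSO vehicle control wells taken as 100%.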

SMILES: C=C(F)C(=O)N1CCN(c2nc(OCC3CCCN3C)nc3c2CCN(c2cccc4cccc(Cl)c24)C3)CC1CC#N (configuration not stated) + CN1CCN(c2cc(C(=O)Nc3cc4cc(-c5cnn(C)c5)ccc4cn3)ccn2)CC1
IC50 [1]: > 10 µM | IC50 [2]: > 10 µM | IC50 [3]: 9.65 µM | IC50 [4]: < 0.0316 µM | IC50 [5]: < 0.0316 µM | IC50 [6]: < 0.0316 µM | viability, T/C [7]: 95.2% | viability, T/C [8]: 104% | viability, T/C [9]: 91.5% | viability, T/C [10]: 100% | viability, T/C [11]: 94.1% | viability, T/C [12]: 84% | viability, T/C [13]: 99.6% | viability, T/C [14]: 90.9% | viability, T/C [15]: 103% | viability, T/C [16]: 96% | viability, T/C [17]: 95.2% | viability, T/C [18]: 85.1% | viability, T/C [19]: 93.6% | viability, T/C [20]: 90.3% | viability, T/C [21]: 82.9% | viability, T/C [22]: 98.6% | viability, T/C [23]: 87.8% | viability, T/C [24]: 48.6% | viability, T/C [25]: 1.94% | viability, T/C [26]: 3.93% | viability, T/C [27]: 4.58% | viability, T/C [28]: 0.73% | viability, T/C [29]: 5.08% | viability, T/C [30]: 0.83% | viability, T/C [31]: 0.56% | viability, T/C [32]: 0.88% | viability, T/C [33]: 0.69% | viability, T/C [34]: 0.56% | viability, T/C [35]: 0.42% | viability, T/C [36]: 0.12% | viability, T/C [37]: 0.42% | viability, T/C [38]: 0.74% | viability, T/C [39]: 0.44% | viability, T/C [40]: 0.95% | viability, T/C [41]: 0.32% | viability, T/C [42]: 0.72%

SMILES: C=C(F)C(=O)N1CCN(c2nc(OCC3CCCN3C)nc3c2CCN(c2cccc4cccc(Cl)c24)C3)CC1CC#N (configuration not stated)
viability, T/C (compound 0.0316 µM): 99.9% and 96.2% | viability, T/C (compound 0.1 µM): 86.9% and 90.1% | viability, T/C (compound 0.316 µM): 97% and 99.1% | viability, T/C (compound 1 µM): 95.4% and 97.3% | viability, T/C (compound 3.16 µM): 94.6% and 89.2% | viability, T/C (compound 10 µM): 38% and 87.9% | IC50 (curve of compound): 7.84 µM and > 10 µM

SMILES: CCCS(=O)(=O)Nc1ccc(F)c(C(=O)c2c[nH]c3ncc(-c4ccc(Cl)cc4)cc23)c1F + CN1CCN(c2cc(C(=O)Nc3cc4cc(-c5cnn(C)c5)ccc4cn3)ccn2)CC1
IC50 [1]: > 10 µM | IC50 [2]: > 10 µM | IC50 [3]: 8.04 µM | IC50 [4]: < 0.0316 µM | IC50 [5]: < 0.0316 µM | IC50 [6]: < 0.0316 µM | viability, T/C [7]: 103% | viability, T/C [8]: 98.2% | viability, T/C [9]: 101% | viability, T/C [10]: 99.8% | viability, T/C [11]: 97.2% | viability, T/C [12]: 92.4% | viability, T/C [13]: 98.5% | viability, T/C [14]: 103% | viability, T/C [15]: 103% | viability, T/C [16]: 106% | viability, T/C [17]: 109% | viability, T/C [18]: 92.2% | viability, T/C [19]: 96.7% | viability, T/C [20]: 96.9% | viability, T/C [21]: 91.8% | viability, T/C [22]: 89.3% | viability, T/C [23]: 99.9% | viability, T/C [24]: 39.5% | viability, T/C [25]: 1.29% | viability, T/C [26]: 4.3% | viability, T/C [27]: 5.03% | viability, T/C [28]: 0.45% | viability, T/C [29]: 0.8% | viability, T/C [30]: 1.4% | viability, T/C [31]: 0.42% | viability, T/C [32]: 0.62% | viability, T/C [33]: 1.12% | viability, T/C [34]: 0.53% | viability, T/C [35]: 0.63% | viability, T/C [36]: 0.92% | viability, T/C [37]: 0.24% | viability, T/C [38]: 0.32% | viability, T/C [39]: 1.24% | viability, T/C [40]: 0.33% | viability, T/C [41]: 0.36% | viability, T/C [42]: 0.85%

The next lines start with results.

IC50 (curve of compound): 0.444 µM and 0.625 µM
SMILES: O=c1[nH]cc(F)c(=O)[nH]1
viability, T/C (compound 0.0316 µM): 94.9% and 97.3% | viability, T/C (compound 0.1 µM): 106% and 96% | viability, T/C (compound 0.316 µM): 55.2% and 69.3% | viability, T/C (compound 1 µM): 50.6% and 37.5% | viability, T/C (compound 3.16 µM): 31.1% and 20.9% | viability, T/C (compound 10 µM): 30.8% and 23.1%

IC50 (curve of compound): > 10 µM
SMILES: CC(CO)NC(=O)c1cc(-c2ccc(Cl)cc2)nn(-c2cnn(C)c2)c1=O (configuration not stated)
viability, T/C (compound 0.0316 µM): 103% and 94.8% | viability, T/C (compound 0.1 µM): 95.2% and 90.1% | viability, T/C (compound 0.316 µM): 96.3% and 95.6% | viability, T/C (compound 1 µM): 96.8% and 92.9% | viability, T/C (compound 3.16 µM): 92.7% and 96% | viability, T/C (compound 10 µM): 89.7% and 83.2%

IC50 (curve of compound): 3.63 µM and 4.8 µM
SMILES: COC1C=CCC(C)C(C)S(=O)(=O)NC(=O)c2ccc3c(c2)N(CC2CCC21)CC1(CCCc2cc(Cl)ccc21)CO3 (configuration not stated)
viability, T/C (compound 0.0316 µM): 101% and 96.4% | viability, T/C (compound 0.1 µM): 86.9% and 97.1% | viability, T/C (compound 0.316 µM): 74% and 90.9% | viability, T/C (compound 1 µM): 80.4% and 83.1% | viability, T/C (compound 3.16 µM): 58.9% and 76% | viability, T/C (compound 10 µM): 5.33% and 8.83%

— PubChem BioAssay AID2060613 (Molecular Pharmacology Branch, DTP, NCI, 2025)
